This passage reports melting point results from patent US20080214583A1, “7H-Pyrrolo[2,3-D]Pyrimidine Derivatives, As Well As Their Therapeutically Acceptable Salts, Pharmaceutical Preparations Containing Them And Process For Production The Active Agent” (priority 2004, published 2008).

As to `Cc1c(C)n(-c2cccc(Cl)c2)c2ncnc(Nc3cc(C(C)(C)C)nn3-c3cccc([N+](=O)[O-])c3)c12` [Example 4, [5-tert.-butyl-2-(3-nitro-phenyl)-2H-pyrazole-3-yl]-[7-(3-chlorophenyl)-5,6-dimethyl-7H-pyrrolo[2,3-d]pyrimidine-4-yl]-amine], the melting point was in the range of 189 to 190 °C.

In turn, `Cc1c(C)n(CCCN2CCOCC2)c2ncnc(NN=Cc3ccc(O)c([N+](=O)[O-])c3)c12` [Example 13, 4-{[5,6-dimethyl-7-(3-morpholine-4-yl-propyl)-7H-pyrrolo[2,3-d]pyrimidine-4-yl]hydrazonomethyl}-2-nitro-phenol] came in with a melting point of 158.8 to 161.5 °C.

In turn, `Cc1c(C)n(CCCN2CCOCC2)c2ncnc(Nc3cc(C(C)(C)C)nn3-c3cccc([N+](=O)[O-])c3)c12` [Example 16, [5-tert.-butyl-2-(3-nitro-phenyl)-2H-pyrazole-3-yl]-[5,6-dimethyl-7-(3-morpholine-4-yl-propyl)-7H-pyrrolo[2,3-d]pyrimidine-4-yl]-amine] had a melting point of 120.9 to 125.3 °C.

Molecule `COc1ccccc1C=NNc1ncnc2c1c(C)c(C)n2Cc1ccccc1` [Example 17, N-(7-benzyl-5,6-dimethyl-7H-pyrrolo[2,3-d]pyrimidine-4-yl)-N′-(2-methoxy-benzylidene)-hydrazine] gave a melting point of 214 to 216 °C.

Turning to `Cc1c(C)n(-c2cccc(Cl)c2)c2ncnc(C(=NN)c3ccc(O)c([N+](=O)[O-])c3)c12` [Example 21, 4-{[5,6-dimethyl-7-(3-chloro-phenyl)-7H-pyrrolo[2,3-d]pyrimidine-4-yl]-hydrazonomethyl}-2-nitro-phenol], the melting point was 204.2 to 206.5 °C.

In turn, `COc1cc(C(=NN)c2ncnc3c2c(C)c(C)n3-c2cccc(Cl)c2)ccc1O` [Example 24, 4-{[5,6-dimethyl-7-(3-chloro-phenyl)-7H-pyrrolo[2,3-d]pyrimidine-4-yl]-hydrazonomethyl}-2-methoxy-phenol] had a melting point of 146 to 187 °C.

Regarding `Cc1c(C)n(Cc2ccccc2)c2ncnc(NN=Cc3ccc(C(F)(F)F)cc3)c12` [Example 26, N-(7-benzyl-5,6-dimethyl-7H-pyrrolo[2,3-d]pyrimidine-4-yl)-N′-(4-trifluoromethyl-benzylidene)-hydrazine], the melting point was 165 to 166 °C.

`Cc1c(C)n(Cc2ccccc2)c2ncnc(C(=NN)c3ccc(O)c([N+](=O)[O-])c3)c12` [Example 28, 4-[(7-benzyl-5,6-dimethyl-7H-pyrrolo[2,3-d]pyrimidine-4-yl)-hydrazonomethyl]-2-nitro-phenol] registered a melting point of 202 to 205 °C.

Molecule `Cc1cc(C(=NN)c2ncnc3c2c(C)c(C)n3Cc2ccccc2)cc(C)c1O` [Example 29, 4-[(7-benzyl-5,6-dimethyl-7H-pyrrolo[2,3-d]pyrimidine-4-yl)-hydrazonomethyl]-2,6-dimethyl-phenol] returned a melting point of 237 to 240 °C.

For the molecule `Cc1c(C)n(Cc2ccccc2)c2ncnc(C(=NN)c3ccc(N(C)C)cc3)c12` [Example 31, {4-[(7-benzyl-5,6-dimethyl-7H-pyrrolo[2,3-d]pyrimidine-4-yl)-hydrazonomethyl]-phenyl}-dimethyl-amine], the melting point fell in the range of 219 to 221 °C.

On to `Cc1c(C)n(Cc2ccccc2)c2ncnc(NN=Cc3cccc([N+](=O)[O-])c3)c12` [Example 32, N-(7-benzyl-5,6-dimethyl-7H-pyrrolo[2,3-d]pyrimidine-4-yl)-N′-(3-nitro-benzylidene)-hydrazine], for which the melting point lay in the range of 103 to 109.5 °C.

Consider `COc1cc(C(=NN)c2ncnc3c2c(C)c(C)n3Cc2ccccc2)ccc1O` [Example 33, 4-[(7-benzyl-5,6-dimethyl-7H-pyrrolo[2,3-d]pyrimidine-4-yl)-hydrazonomethyl]-2-methoxy-phenol], for which the melting point was in the range of 220 to 221 °C.

For the molecule `Cc1c(C)n(Cc2ccccc2)c2ncnc(C(=NN)c3ccc(C#N)cc3)c12` [Example 35, 4-[(7-benzyl-5,6-dimethyl-7H-pyrrolo[2,3-d]pyrimidine-4-yl)-hydrazonomethyl]-benzonitrile], the melting point was 223.5 to 225 °C.

For the molecule `Cc1c(C)n(-c2cccc(Cl)c2)c2ncnc(NN=C3C(=O)Nc4ccc(Br)cc43)c12` [Example 38, 5-bromo-3-{[5,6-dimethyl-7-(3-chloro-phenyl)-7H-pyrrolo[2,3-d]pyrimidine-4-yl]-hydrazono}-1,3-dihydro-indole-2-on], the melting point is 292 to 294.5 °C.

`Cc1c(C)n(-c2cccc(Cl)c2)c2ncnc(NN=C3C(=O)Nc4ccccc43)c12` [Example 39, 3-{[5,6-dimethyl-7-(3-chloro-phenyl)-7H-pyrrolo[2,3-d]pyrimidine-4-yl]-hydrazono}-1,3-dihydro-indole-2-on] gave a melting point of 281 to 293 °C.

As for `Cc1c(C)n(-c2cccc(Cl)c2)c2ncnc(NN=C3C(=O)Nc4ccc(Cl)cc43)c12` [Example 40, 5-chloro-3-{[5,6-dimethyl-7-(3-chloro-phenyl)-7H-pyrrolo[2,3-d]pyrimidine-4-yl]-hydrazono}-1,3-dihydro-indole-2-on], the melting point fell in the range of 314 to 315 °C.

`Cc1c(C)n(-c2cccc(Cl)c2)c2ncnc(NN=C3C(=O)Nc4c(Cl)ccc(Cl)c43)c12` [Example 41, 4,7-dichloro-3-{[5,6-dimethyl-7-(3-chloro-phenyl)-7H-pyrrolo[2,3-d]pyrimidine-4-yl]-hydrazono}-1,3-dihydro-indole-2-on] showed a melting point of 284 to 285 °C.

Turning to `Cc1ccc2c(c1)C(=NNc1ncnc3c1c(C)c(C)n3-c1cccc(Cl)c1)C(=O)N2` [Example 42, 3-{[5,6-dimethyl-7-(3-chloro-phenyl)-7H-pyrrolo[2,3-d]pyrimidine-4-yl]-hydrazono}-5-methyl-1,3-dihydro-indole-2-on], the melting point was in the range of 302 to 303 °C.

`Cc1c(C)n(-c2cccc(Cl)c2)c2ncnc(NN=C3C(=O)Nc4ccc(F)cc43)c12` [Example 43, 3-{[5,6-dimethyl-7-(3-chloro-phenyl)-7H-pyrrolo[2,3-d]pyrimidine-4-yl]-hydrazono}-5-fluoro-1,3-dihydro-indole-2-on]: the melting point was in the range of 271 to 279 °C.

The molecule `Cc1c(C)n(-c2cccc(Cl)c2)c2ncnc(NN=C3C(=O)Nc4ccc(OC(F)(F)F)cc43)c12` [Example 44, 3-{[5,6-dimethyl-7-(3-chloro-phenyl)-7H-pyrrolo[2,3-d]pyrimidine-4-yl]-hydrazono}-5-trifluoromethoxy-1,3-dihydro-indole-2-on] gave a melting point of 262 to 276 °C.

For the molecule `Cc1c(C)n(Cc2ccccc2)c2ncnc(NN=C3C(=O)Nc4ccc(Br)cc43)c12` [Example 45, 3-[(7-benzyl-5,6-dimethyl-7H-pyrrolo[2,3-d]pyrimidine-4-yl)-hydrazono]-5-bromo-1,3-dihydro-indole-2-on], the melting point is 288 to 290 °C.

Take `Cc1c(C)n(Cc2ccccc2)c2ncnc(NN=C3C(=O)Nc4ccccc43)c12` [Example 46, 3-[(7-benzyl-5,6-dimethyl-7H-pyrrolo[2,3-d]pyrimidine-4-yl)-hydrazono]-1,3-dihydro-indole-2-on]: the melting point is 292 to 293 °C.

With `Cc1c(C)n(Cc2ccccc2)c2ncnc(NN=C3C(=O)Nc4ccc(Cl)cc43)c12` [Example 48, 3-[(7-benzyl-5,6-dimethyl-7H-pyrrolo[2,3-d]pyrimidine-4-yl)-hydrazono]-5-chloro-1,3-dihydro-indole-2-on], the melting point lay within 302 to 303 °C.

`Cc1c(C)n(Cc2ccccc2)c2ncnc(NN=C3C(=O)Nc4cc(Cl)cc(Cl)c43)c12` [Example 49, 3-[(7-benzyl-5,6-dimethyl-7H-pyrrolo[2,3-d]pyrimidine-4-yl)-hydrazono]-4,6-dichloro-1,3-dihydro-indole-2-on] showed a melting point of 299 °C.

For `Cc1c(C)n(Cc2ccccc2)c2ncnc(NN=C3C(=O)Nc4c(Cl)ccc(Cl)c43)c12` [Example 50, 3-[(7-benzyl-5,6-dimethyl-7H-pyrrolo[2,3-d]pyrimidine-4-yl)-hydrazono]-4,7-dichloro-1,3-dihydro-indole-2-on], the melting point came out at 298 °C.

In turn, `Cc1c(C)n(-c2cccc(Cl)c2)c2ncnc(Nc3c(C#N)c(-c4ccccc4)c(-c4ccccc4)n3Cc3ccccc3)c12` [Example 62, 1-benzyl-2-[5,6-dimethyl-7-(3-chloro-phenyl)-7H-pyrrolo[2,3-d]pyrimidine-4-yl-amino]-4,5-diphenyl-1H-pyrrol-3-carbonitrile] showed a melting point of 187.4 to 189.3 °C.

`Cc1c(C#N)c(Nc2ncnc3c2c(C)c(C)n3-c2cccc(Cl)c2)n(Cc2ccccc2)c1C` [Example 63, 1-benzyl-2-[5,6-dimethyl-7-(3-chloro-phenyl)-7H-pyrrolo[2,3-d]pyrimidine-4-yl-amino]-4,5-dimethyl-1H-pyrrol-3-carbonitrile] yielded a melting point of 228.1 to 229 °C.

Regarding `Cc1c(C#N)c(Nc2ncnc3c2c2ccccc2n3Cc2ccccc2)n(-c2cccc(Cl)c2)c1C` [Example 64, 2-(9-benzyl-9H-1,3,9-triaza-fluorene-4-yl-amino)-1-(3-chloro-phenyl)-4,5-dimethyl-1H-pyrrol-3-carbonitrile], the melting point is 252.2 to 253.1 °C.

`N#Cc1c(-c2ccccc2)c(-c2ccccc2)n(Cc2ccccc2)c1Nc1ncnc2c1c1ccccc1n2Cc1ccccc1` [Example 66, 1-benzyl-2-(9-benzyl-9H-1,3,9-triaza-fluorene-4-yl-amino)-4,5-diphenyl-1H-pyrrol-3-carbonitrile]: the melting point is more than 90 °C.

With `Cc1c(C)n(Cc2ccccc2)c2ncnc(Nc3c(C#N)c(-c4ccccc4)c(-c4ccccc4)n3Cc3ccccc3)c12` [Example 74, 1-benzyl-2-(7-benzyl-5,6-dimethyl-7H-pyrrolo[2,3-d]pyrimidine-4-yl-amino)-4,5-diphenyl-1H-pyrrol-3-carbonitrile], the melting point is 197.1 to 197.6 °C.

Take `Cc1c(C#N)c(Nc2ncnc3c2c(C)c(C)n3Cc2ccccc2)n(Cc2ccccc2)c1C` [Example 75, 1-benzyl-2-(7-benzyl-5,6-dimethyl-7H-pyrrolo[2,3-d]pyrimidine-4-yl-amino)-4,5-dimethyl-1H-pyrrol-3-carbonitrile]: the melting point was 236 to 239.1 °C.
